Tests used:
[1] = Liver enzyme (ALT/AST) elevation rates in TARGET study; format: in vivo, human
Procedure: Affected patients and matched controls are identified from a large 52-week international, multicenter, stratified, randomized, double-blind, double-dummy, parallel group clinical study. Most patients are administered one 400 mg dose of lumiracoxib each day. Patients are identified as affected cases based upon clinical measurements of elevated liver enzymes greater than or equal to 3 times ULN following administration of lumiracoxib. Patients are identified as control cases based upon clinical measurements of elevated liver enzymes less than 3 times ULN following administration of lumiracoxib, and control patients are matched to affected cases based upon clinical trial, country (where possible), sex, race and age (within 2 years, where possible). A total of 137 cases and 577 matched controls are used for analysis.
Kaplan-Meier incidence estimates are calculated for the DQA1*0102 carriers and non-carriers for >3xULN (FIG. 4) and >5xULN (FIG. 5) ALT/AST elevations.

[2] = cited from earlier work
[3] = TARGET, crude rate, whole treatment group
[4] = TARGET, crude rate, whole treatment group (Hy's law cases)
[5] = TARGET, patients with DNA and excluding DQA1*0102 patients, N ~3538 estimated

| Structure (SMILES) | ALT/AST >3x ULN [1, 3] | ALT/AST >5x ULN [1, 3] | ALT/AST >8x ULN [1, 3] | ALT/AST >3x ULN + bilirubin ≧2xULN [1, 4] | Hy's law cases ([1]; TARGET, per treatment arm) | retention in inflamed tissues ([2]; inflamed tissues) | time to maximum plasma concentrations after dosing ([2]; oral) | elimination half-life from plasma ([2]; plasma) | Kaplan-Meier incidence estimates of >3xULN and >5xULN ALT/AST elevations ([1]; DQA1*0102 carriers) | Kaplan-Meier incidence estimates of >3xULN and >5xULN ALT/AST elevations ([1]; DQA1*0102 non-carriers) | Hy's law cases ([1]; TARGET, DQA1*0102-negative patients in the lumiracoxib arm) | ULN ALT/AST rates compared to the lumiracoxib arm ([1]; TARGET, lumiracoxib DQA1*0102-negative patients) | ALT/AST >3x ULN [1, 5] | ALT/AST >3x ULN + bilirubin ≧2xULN [1, 5] | ALT/AST >5x ULN [1, 5] | ALT/AST >8x ULN [1, 5] |
| --- | --- | --- | --- | --- | --- | --- | --- | --- | --- | --- | --- | --- | --- | --- | --- | --- |
| CC(C)Cc1ccc(C(C)C(=O)O)cc1 (centres unmarked) [Ibuprofen] | 35 (0.8) n (%) | 13 (0.3) n (%) | 4 (0.1) n (%) | 2 (0.05) n (%) | 2 cases | – | – | – | – | – | – | – | – | – | – | – |
| Cc1ccc(Nc2c(F)cccc2Cl)c(CC(=O)O)c1 [Lumiracoxib, 2-[(2-chloro-6-fluorophenyl)amino]-5-methyl-benzeneacetic acid] | 236 (2.6) n (%) | 113 (1.3) n (%) | 56 (0.62) n (%) | 9 (0.10) n (%) | Nine | up to 24 hours | two | four | dramatic increase in the incidence after week 13 | do not show a sharp increase after week 13 | no cases | reduced considerably and are comparable to the other NSAIDs | 36 (1.0) n (%) | 0 (0) n (%) | 10 (0.3) n (%) | 3 (0.1) n (%) |
| COc1ccc2cc([C@H](C)C(=O)O)ccc2c1 [Naproxen] | 21 (0.5) n (%) | 6 (0.1) n (%) | 3 (0.1) n (%) | 2 (0.04) n (%) | 2 cases | – | – | – | – | – | – | – | – | – | – | – |
